Reference: patent US12595230B2, “Substituted 6,7-dihydro-5H-benzo[7]annulene compounds and their derivatives, processes for their preparation and therapeutic uses thereof” (Sanofi, priority 2020, dated 2026)

Target: T1, ERα (Homo sapiens, UniProt P03372)
T1 construct: host or cells: MCF7
T1 sequence (P03372 1-595): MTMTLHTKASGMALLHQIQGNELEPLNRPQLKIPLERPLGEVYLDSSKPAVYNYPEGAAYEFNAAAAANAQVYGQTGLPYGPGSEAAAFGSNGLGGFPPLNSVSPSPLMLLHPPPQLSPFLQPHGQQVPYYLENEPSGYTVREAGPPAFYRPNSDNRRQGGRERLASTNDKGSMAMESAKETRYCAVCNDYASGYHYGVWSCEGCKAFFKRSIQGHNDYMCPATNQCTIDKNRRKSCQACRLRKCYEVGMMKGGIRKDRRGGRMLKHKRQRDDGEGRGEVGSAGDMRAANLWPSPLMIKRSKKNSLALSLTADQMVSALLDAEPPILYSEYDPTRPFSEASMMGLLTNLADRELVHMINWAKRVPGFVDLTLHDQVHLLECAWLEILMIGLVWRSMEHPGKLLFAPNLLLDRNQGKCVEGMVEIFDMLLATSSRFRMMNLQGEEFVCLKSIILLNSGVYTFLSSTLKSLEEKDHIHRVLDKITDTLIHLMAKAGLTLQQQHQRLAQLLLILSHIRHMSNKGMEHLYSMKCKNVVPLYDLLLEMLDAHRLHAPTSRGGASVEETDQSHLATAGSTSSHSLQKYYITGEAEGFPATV
Assay: Estrogen receptor degradation activity: breast cancer cell ERα in cell western assay (MCF7 cells)
Format: cell-based
Conditions: for % Degradation At 0.3 μM: 4 hours, relative to fulvestrant 0.1 μM positive control; for DC50: 4 hours post compound addition, concentration which degrades 50% of the estrogen receptor, read-out: Degradation IC50
How it was run: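 Compounds were applied to MCF7 cells in stripped-serum, phenol red-free medium for 4 h at final 0.3–0.0000018 μM, with fulvestrant (0.1 μM) as control. Value: IC50 (nM) for 50% ERα degradation.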

Question: Which results are given for `CCOC(c1ccc(C2=C(c3ccc(Cl)cc3Cl)CCCc3cc(C(=O)O)ccc32)cc1)C1CN(CCCF)C1` (single isomer, unassigned; isomer 2) [Example 230, 8-(2,4-dichlorophenyl)-9-(4-(ethoxy(1-(3-fluoropropyl)azetidin-3-yl)methyl)phenyl)-6,7-dihydro-5H-benzo[7]annulene-3-carboxylic Acid Isomer 2]?
Answer: % Degradation At 0.3 μM: 78%; DC50: 0.7 nM

Question: `Cc1cc(F)ccc1C1=C(c2ccc(CC3CN(CCCF)C3)cc2)c2ccc(C(=O)O)cc2CCC1` [Example 33, 8-(4-fluoro-2-methylphenyl)-9-(4-((1-(3-fluoropropyl)azetidin-3-yl)methyl)phenyl)-6,7-dihydro-5H-benzo[7]annulene-3-carboxylic acid] was tested. Which “% Degradation At 0.3 μM” value did it give?
Answer: The value was 89%.

Question: What about the DC50 of the same compound?
Answer: The DC50 was 0.2 nM.

Question: With `Cc1ccc(C2=C(c3ccc(CC4CN(CCCF)C4)cc3)c3ccc(C(=O)O)cc3CCC2)c(C(F)(F)F)c1.Cl` [Example 213, 9-(4-((1-(3-fluoropropyl)azetidin-3-yl)methyl)phenyl)-8-(4-methyl-2-(trifluoromethyl)phenyl)-6,7-dihydro-5H-benzo[7]annulene-3-carboxylic acid hydrochloride] as the compound, how does the “% Degradation At 0.3 μM” value read?
Answer: The value was 94%.

Question: What about the DC50 of the same compound?
Answer: The DC50 was 0.2 nM.

Question: Which “% Degradation At 0.3 μM” value does the source give for `Cl.O=C(O)c1ccc2c(c1)CCCC(c1ccc(F)cc1Cl)=C2c1ccc(CC2CN(CCCF)C2)cc1` [Example 8, 8-(2-chloro-4-fluorophenyl)-9-(4-((1-(3-fluoropropyl)azetidin-3-yl)methyl)phenyl)-6,7-dihydro-5H-benzo[7]annulene-3-carboxylic acid] here?
Answer: Its value is 92%.

Question: What about the DC50 of the same compound?
Answer: Its DC50 is 0.4 nM.

Question: With `O=C(O)c1ccc2c(c1)CCCC(c1cccc(C(F)(F)F)c1Cl)=C2c1ccc(CC2CN(CCC(F)(F)F)C2)cc1` [Example 257, 8-(2-chloro-3-(trifluoromethyl)phenyl)-9-(4-((1-(3,3,3-trifluoropropyl)azetidin-3-yl)methyl)phenyl)-6,7-dihydro-5H-benzo[7]annulene-3-carboxylic acid] as the compound, how does the “% Degradation At 0.3 μM” value read?
Answer: Its value is 83%.

Question: And the DC50?
Answer: Its DC50 is 0.7 nM.

Question: With `O=C(O)c1ccc2c(c1)CCCC(c1ccc(F)cc1C(F)(F)F)=C2c1ccc(CC2CN(CCCF)C2)cc1` [Example 26, 8-(4-fluoro-2-(trifluoromethyl)phenyl)-9-(4-((1-(3-fluoropropyl)azetidin-3-yl)methyl)phenyl)-6,7-dihydro-5H-benzo[7]annulene-3-carboxylic acid] as the compound, how does the “% Degradation At 0.3 μM” value read?
Answer: The value was 92%.

Question: What about the DC50 of the same compound?
Answer: Its DC50 is 0.3 nM.

Question: For `Cc1cccc(C2=C(c3ccc(CC4CN(CCCF)C4)cc3)c3ccc(C(=O)O)cc3CCC2)c1C(F)(F)F.Cl` [Example 313, 9-(4-((1-(3-fluoropropyl)azetidin-3-yl)methyl)phenyl)-8-(3-methyl-2-(trifluoromethyl)phenyl)-6,7-dihydro-5H-benzo[7]annulene-3-carboxylic acid hydrochloride], which “% Degradation At 0.3 μM” value is on record?
Answer: The value was 90%.

Question: And the DC50?
Answer: The DC50 was 0.3 nM.

Question: `O=C(O)c1ccc2c(c1)CCCC(c1ccc(Cl)cc1Cl)=C2c1ccc(CC2CN(CCC(F)(F)F)C2)cc1` [Example 261, 8-(2,4-dichlorophenyl)-9-(4-((1-(3,3,3-trifluoropropyl)azetidin-3-yl)methyl)phenyl)-6,7-dihydro-5H-benzo[7]annulene-3-carboxylic acid] was tested. Which “% Degradation At 0.3 μM” value did it give?
Answer: The value was 89%.

Question: And the DC50?
Answer: The DC50 was 0.8 nM.

Question: How did the “% Degradation At 0.3 μM” value turn out when `COC(c1ccc(C2=C(c3ccc(Cl)cc3Cl)CCCc3cc(C(=O)O)ccc32)cc1)C1CN(CCCF)C1` (single isomer, unassigned; isomer 1) [Example 227, 8-(2,4-dichlorophenyl)-9-(4-((1-(3-fluoropropyl)azetidin-3-yl)(methoxy)methyl)phenyl)-6,7-dihydro-5H-benzo[7]annulene-3-carboxylic Acid Isomer 1] was run?
Answer: The value was 75%.

Question: And the DC50?
Answer: The DC50 was 0.6 nM.

Question: With `O=C(O)c1ccc2c(c1)CCCC(c1ccc(Cl)cc1C(F)F)=C2c1ccc(CC2CN(CCCF)C2)cc1` [Example 221, 8-(4-chloro-2-(difluoromethyl)phenyl)-9-(4-((1-(3-fluoropropyl)azetidin-3-yl)methyl)phenyl)-6,7-dihydro-5H-benzo[7]annulene-3-carboxylic acid] as the compound, how does the “% Degradation At 0.3 μM” value read?
Answer: The value was 91%.

Question: And the DC50?
Answer: The DC50 was 0.2 nM.

Question: How did the “% Degradation At 0.3 μM” value turn out when `Cc1c(C2=C(c3ccc(CC4CN(CCC(F)F)C4)cc3)c3ccc(C(=O)O)cc3CCC2)ccc(F)c1F` [Example 275, 8-(3,4-difluoro-2-methylphenyl)-9-(4-((1-(3,3-difluoropropyl)azetidin-3-yl)methyl)phenyl)-6,7-dihydro-5H-benzo[7]annulene-3-carboxylic acid] was run?
Answer: The value was 89%.

Question: What about the DC50 of the same compound?
Answer: Its DC50 is 0.4 nM.

Question: `FCCCN1CC(Cc2ccc(C3=C(c4ccccc4Cl)CCCc4ccccc43)cc2)C1` [Example 304, 3-(4-(8-(2-chlorophenyl)-6,7-dihydro-5H-benzo[7]annulen-9-yl)benzyl)-1-(3-fluoropropyl)azetidine] was tested. Which “% Degradation At 0.3 μM” value did it give?
Answer: The value was 89%.

Question: What about the DC50 of the same compound?
Answer: The DC50 was 17.4 nM.

Question: Which “% Degradation At 0.3 μM” value does the source give for `O=C(O)c1ccc2c(c1)CCCC(c1cc(F)cc(F)c1)=C2c1ccc(CC2CN(CCCF)C2)cc1` [Example 266, 8-(3,5-difluorophenyl)-9-(4-((1-(3-fluoropropyl)azetidin-3-yl)methyl)phenyl)-6,7-dihydro-5H-benzo[7]annulene-3-carboxylic acid] here?
Answer: Its value is 90%.

Question: What about the DC50 of the same compound?
Answer: Its DC50 is 0.3 nM.

Question: `Cl.O=C(O)c1ccc2c(c1)OCCC(c1ccccc1Cl)=C2c1ccc(CC2CN(CCCF)C2)cc1` [Example 49, 4-(2-chlorophenyl)-5-(4-((1-(3-fluoropropyl)azetidin-3-yl)methyl)phenyl)-2,3-dihydrobenzo[b]oxepine-8-carboxylic acid] was tested. Which “% Degradation At 0.3 μM” value did it give?
Answer: The value was 82%.

Question: And the DC50?
Answer: The DC50 was 3.4 nM.

Question: `O=C(O)c1ccc2c(c1)CCCC(c1cccc(CC(F)F)c1)=C2c1ccc(CC2CN(CCCF)C2)cc1` [Example 297, 8-(3-(2,2-difluoroethyl)phenyl)-9-(4-((1-(3-fluoropropyl)azetidin-3-yl)methyl)phenyl)-6,7-dihydro-5H-benzo[7]annulene-3-carboxylic acid] was tested. Which “% Degradation At 0.3 μM” value did it give?
Answer: Its value is 81%.

Question: And the DC50?
Answer: Its DC50 is 0.7 nM.

Question: What does the source list for `O=C(O)c1ccc2c(c1)CCCC([C@@H]1C[C@H]1C1CCC(F)(F)CC1)=C2c1ccc(CC2CN(CCCF)C2)cc1` [Example 331, 8-((1R,2S)-2-(4,4-difluorocyclohexyl)cyclopropyl)-9-(4-((1-(3-fluoropropyl)azetidin-3-yl)methyl)phenyl)-6,7-dihydro-5H-benzo[7]annulene-3-carboxylic acid]?
Answer: % Degradation At 0.3 μM: 77%; DC50: 10.7 nM

Question: With `O=C([O-])c1ccc2c(c1)CCCC(c1cc(C(F)F)ccc1F)=C2c1ccc(CC2CN(CCCF)C2)cc1.[Na+]` [Example 273, sodium 8-(5-(difluoromethyl)-2-fluorophenyl)-9-(4-((1-(3-fluoropropyl)azetidin-3-yl)methyl)phenyl)-6,7-dihydro-5H-benzo[7]annulene-3-carboxylate] as the compound, how does the “% Degradation At 0.3 μM” value read?
Answer: Its value is 89%.

Question: And the DC50?
Answer: The DC50 was 0.6 nM.

Question: For `O=C(O)c1ccc2c(c1)CCCC(C1CCOCC1)=C2c1ccc(CC2CN(CCCF)C2)cc1` [Example 38, 9-(4-((1-(3-fluoropropyl)azetidin-3-yl)methyl)phenyl)-8-(tetrahydro-2H-pyran-4-yl)-6,7-dihydro-5H-benzo[7]annulene-3-carboxylic acid], which “% Degradation At 0.3 μM” value is on record?
Answer: The value was 83%.

Question: And the DC50?
Answer: Its DC50 is 7 nM.

Question: For `CC1CCc2cc(C(=O)O)ccc2C(c2ccc(CC3CN(CCCF)C3)cc2)=C1c1ccc(F)cc1C(F)(F)F` (racemic) [Example 312, 8-(4-fluoro-2-(trifluoromethyl)phenyl)-9-(4-((1-(3-fluoropropyl)azetidin-3-yl)methyl)phenyl)-7-methyl-6,7-dihydro-5H-benzo[7]annulene-3-carboxylic acid], which “% Degradation At 0.3 μM” value is on record?
Answer: The value was 91%.

Question: What about the DC50 of the same compound?
Answer: Its DC50 is 0.3 nM.

Question: `Cl.O=C(O)c1ccc2c(c1)CCCC(c1cccc(F)c1Cl)=C2c1ccc(CC2CN(CCCF)C2)cc1` [Example 9, 8-(2-chloro-3-fluorophenyl)-9-(4-((1-(3-fluoropropyl)azetidin-3-yl)methyl)phenyl)-6,7-dihydro-5H-benzo[7]annulene-3-carboxylic acid] was tested. Which “% Degradation At 0.3 μM” value did it give?
Answer: Its value is 92%.

Question: What about the DC50 of the same compound?
Answer: Its DC50 is 0.3 nM.

Question: What does the source list for `O=C(O)c1ccc2c(c1)CCCC(c1c(F)cccc1Cl)=C2c1ccc(CC2CN(CCCF)C2)cc1` [Example 220, 8-(2-chloro-6-fluorophenyl)-9-(4-((1-(3-fluoropropyl)azetidin-3-yl)methyl)phenyl)-6,7-dihydro-5H-benzo[7]annulene-3-carboxylic acid]?
Answer: % Degradation At 0.3 μM: 87%; DC50: 0.3 nM

Question: How did the “% Degradation At 0.3 μM” value turn out when `O=C(O)c1ccc2c(c1)CCCC(c1c(Cl)cccc1C(F)(F)F)=C2c1ccc(CC2CN(CCCF)C2)cc1` [Example 34, 8-(2-chloro-6-(trifluoromethyl)phenyl)-9-(4-((1-(3-fluoropropyl)azetidin-3-yl)methyl)phenyl)-6,7-dihydro-5H-benzo[7]annulene-3-carboxylic acid] was run?
Answer: The value was 79%.

Question: And the DC50?
Answer: Its DC50 is 0.2 nM.

Question: `Cl.O=C(O)c1ccc2c(c1)CCC(c1ccc(Cl)cc1Cl)=C2c1ccc(CC2CN(CCCF)C2)cc1` [Example 262, 6-(2,4-Dichlorophenyl)-5-(4-((1-(3-fluoropropyl)azetidin-3-yl)methyl)phenyl)-7,8-dihydronaphthalene-2-carboxylic Acid Hydrochloride] was tested. Which “% Degradation At 0.3 μM” value did it give?
Answer: Its value is 91%.

Question: What about the DC50 of the same compound?
Answer: The DC50 was 1.6 nM.
